Measured values from US4318904A, “Peptide affinity labels for thrombin and other trypsin-like proteases” (Research Corporation, priority 1980, dated 1982).
Read-outs that look alike come from different tables or passages of the source. Where no end group is shown, it is not given here. The star is where a group is joined. CH2Cl = ClC*

Experiments:
thrombin [1] = target: T1, thrombin (Homo sapiens, UniProt P00734); assay: Inactivation of human thrombin, residual esterase activity; type: biochemical; details: 4.5×10^-7 M thrombin + 2.25×10^-7 M label; theoretical value 50%
thrombin [2] = target: T1, thrombin; assay: Inactivation of human thrombin, fibrinogen clotting assay; type: biochemical; details: 4.5×10^-7 M thrombin + 2.25×10^-7 M label; theoretical value 50%
thrombin [3] = target: T1, thrombin; set-up: Thrombin itself is generated from a pro-enzyme, prothrombin, by the enzymatic action of another proteolytic enzyme, factor Xa; details: Bajusz et al, page 603; reversible inhibitor; cited from earlier work
thrombin [4] = target: T1, thrombin; set-up: Thrombin itself is generated from a pro-enzyme, prothrombin, by the enzymatic action of another proteolytic enzyme, factor Xa; details: cited from earlier work; for t1/2, half time for the pseudo-first-order inactivation of thrombin / kapp /[I], apparent first order rate constant for inactivation of thrombin / concentration of affinity label: pH 7.0, 25° C; for Ki / k2 / k2 /Ki: Table IV, ref (a) Kettner and Shaw

| Compound | kapp /[I], apparent first order rate constant for inactivation of thrombin / concentration of affinity label (thrombin [4]) | Ki (thrombin [4]) | k2 (thrombin [4]) | k2 /Ki (thrombin [4]) | other results |
| --- | --- | --- | --- | --- | --- |
| N=C(N)NCCC[C@H](NC(=O)[C@@H]1CCCN1C(=O)[C@H](N)Cc1ccccc1)C(=O)CCl [D-Phe-Pro-ArgCH2 Cl, D-Phe-Pro-Arg-CH2 Cl.2HCl] | – | – | – | – | inactivation of human thrombin by esterase assay (thrombin [1]): 47%; inactivation of human thrombin by clotting assay (thrombin [2]): 45% |
| D-Phe-Pro-Arg-H | – | – | – | – | Ki (thrombin [3]): 0.075 µM |
| Glu-Gly-ArgCH2 Cl | 2.20 (min^-1 M^-1) × 10^-4 | – | – | – | t1/2, half time for the pseudo-first-order inactivation of thrombin (thrombin [4]; inhibitor 1.0 × 10^-6 M): 31 min |
| Gly-Val-ArgCH2 Cl | 1.90 (min^-1 M^-1) × 10^-4 | 13 µM | 0.30 min⁻¹ | 383 M⁻¹ s⁻¹ | t1/2, half time for the pseudo-first-order inactivation of thrombin (thrombin [4]; inhibitor 2.0 × 10^-6 M): 18 min |
| Ile-Pro-ArgCH2 Cl | 42.00 (min^-1 M^-1) × 10^-4 | – | – | – | t1/2, half time for the pseudo-first-order inactivation of thrombin (thrombin [4]; inhibitor 7.5 × 10^-8 M): 22 min |
| Phe-Ala-ArgCH2 Cl | – | 2.9 µM | 0.26 min⁻¹ | 1500 M⁻¹ s⁻¹ | – |
| Phe-Ala-LysCH2 Cl | – | 37 µM | 0.34 min⁻¹ | 150 M⁻¹ s⁻¹ | – |
| Pro-Gly-ArgCH2 Cl | 1.20 (min^-1 M^-1) × 10^-4 | – | – | – | t1/2, half time for the pseudo-first-order inactivation of thrombin (thrombin [4]; inhibitor 1.0 × 10^-6 M): 57 min |
| Pro-Phe-ArgCH2 Cl | 0.04 (min^-1 M^-1) × 10^-4 | – | – | – | t1/2, half time for the pseudo-first-order inactivation of thrombin (thrombin [4]; inhibitor 5.0 × 10^-5 M): 35 min |
| Val-Ile-Pro-ArgCH2 Cl (VIPR-CH2Cl) | 73.00 (min^-1 M^-1) × 10^-4 | – | – | – | t1/2, half time for the pseudo-first-order inactivation of thrombin (thrombin [4]; inhibitor 7.5 × 10^-8 M): 13 min |
| Val-Pro-ArgCH2 Cl | 54.00 (min^-1 M^-1) × 10^-4 | 0.67 µM | 0.31 min⁻¹ | 6670 M⁻¹ s⁻¹ | t1/2, half time for the pseudo-first-order inactivation of thrombin (thrombin [4]; inhibitor 7.5 × 10^-8 M): 17 min |
| Val-Val-ArgCH2 Cl | 2.10 (min^-1 M^-1) × 10^-4 | – | – | – | t1/2, half time for the pseudo-first-order inactivation of thrombin (thrombin [4]; inhibitor 1.0 × 10^-6 M): 33 min |
